In paper PMC11062922 (Nature Chemical Biology, 2023):

How the values were obtained:
CHECK1 = biological target: T1, CHECK1 (Homo sapiens, UniProt O14757); assay: Kinobeads two-dose competition binding: CHECK1; settings: for CATDS: target CHEK1
T1 construct: endogenous in cells
T1 sequence (O14757 1-476): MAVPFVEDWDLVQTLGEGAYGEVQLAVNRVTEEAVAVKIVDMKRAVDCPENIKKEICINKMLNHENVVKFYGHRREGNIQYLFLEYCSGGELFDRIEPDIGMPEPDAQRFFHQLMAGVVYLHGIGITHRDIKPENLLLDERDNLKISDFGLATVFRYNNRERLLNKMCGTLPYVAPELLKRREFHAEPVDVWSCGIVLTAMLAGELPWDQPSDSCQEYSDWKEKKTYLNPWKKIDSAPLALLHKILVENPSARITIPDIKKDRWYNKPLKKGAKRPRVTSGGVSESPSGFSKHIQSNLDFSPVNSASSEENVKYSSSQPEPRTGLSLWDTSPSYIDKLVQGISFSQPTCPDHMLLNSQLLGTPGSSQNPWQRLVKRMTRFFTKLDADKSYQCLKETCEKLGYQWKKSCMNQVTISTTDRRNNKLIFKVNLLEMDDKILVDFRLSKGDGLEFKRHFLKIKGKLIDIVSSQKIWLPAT
Source text: (§1) Briefly, Kinobeads comprise seven broad-spectrum small molecule kinase inhibitors immobilized on Sepharose beads. […]. Compounds of interest are set to compete for target protein binding with Kinobeads in the lysate and the amount of a given protein bound to Kinobeads in the presence of a compound can be quantified relative to a dimethylsulfoxide (DMSO) vehicle control by label-free mass spectrometry. This assay measures the physical interaction of a compound with thousands of endogenous proteins in parallel and, when systematically increasing the concentration of competitor, enables the calculation of an apparent interaction constant ( Kdapp ) for each compound and protein.
(§2) Kinobeads pulldown experiments were performed as described previously[13],[14],[17] with minor modification. […] The protein concentration was adjusted to 5 mg ml^−1. Kinase inhibitors were spiked into 0.5 ml of cell lysate at final concentrations of 100 and 1,000 nM (or DMSO, 0.3, 1, 3, 10, 30, 100, 300 and 1,000 nM for full dose experiments). […] Lysates were incubated for 45 min at 4 °C. Subsequently, lysates were incubated with Kinobeads ε (17.5 µl of settled beads) for 30 min at 4 °C. To assess the degree of protein depletion from the lysates by Kinobeads, the flow through of the DMSO control was recovered for a pulldown of pulldown experiment where the lysate was incubated a second time with fresh Kinobeads. Beads were washed in three steps with buffer containing 0.4%, 0.2% and no IGEPAL. Bound proteins were reduced with 50 mM DTT in 8 M Urea, 40 mM Tris-HCl pH 7.4 for 30 min at room temperature. After alkylation with 55 mM chloroacetamide, the urea concentration was reduced to 1–2 M and proteins were digested with trypsin. Acidified peptides were desalted and concentrated using SepPak tC18 µEluation plates (Waters). Samples were frozen, dried by vacuum centrifugation and stored at −20 °C.
(§3) Each kinase inhibitor was processed together with all DMSO controls of the same plate. Additionally, each search was supplemented with five high quality DMSO controls for consistent peptide identification and protein grouping. The resultant file (proteinGroups.txt) was used for subsequent filtering, normalization, data visualization and target annotation that was automatically performed by a data processing pipeline built in house that used R (including the ‘drc’ and ‘heatmap’ packages). First, reverse hits, potential contaminants and not quantified proteins in the DMSO control samples were discarded. Protein raw and label-free quantification intensities were normalized to the median DMSO control intensity to obtain relative residual binding intensities for each protein group at every inhibitor concentration and standard deviations of the DMSO control intensity were calculated. IC50 values were estimated based on the following equation IC50=I×100−inhibition/inhibition where [I] is the inhibitor concentration that was used for IC50 calculation and ‘inhibition’ the relative residual binding intensity. […]. Estimated Kdapp values were then calculated by multiplying the estimated IC50 values with a protein-dependent correction factor that was limited to a maximum value of one. The correction factor accounts for the depletion of a target protein from the lysate by Kinobeads. The depletion can be measured by the ratio of the amount of protein captured in two consecutive pulldowns of the same DMSO control lysate. In this study, correction factors were determined in separate experiments using the same lysate mixture and the same bead batch. Correction factors were set to the median of all correction factors. Targets of kinase inhibitors were annotated using the previously published random forest classifier. A training data set was annotated manually. […]

BMP2K = biological target: T2, BMP2K (Homo sapiens, UniProt Q9NSY1); assay: Kinobeads two-dose competition binding: BMP2K; settings: for CATDS: target BMP2K
T2 construct: endogenous in cells
Source text: as §1, §2, §3

ACAD11 = biological target: T3, ACAD11 (Homo sapiens, UniProt Q709F0); assay: Kinobeads two-dose competition binding: ACAD11; settings: sheet CATDS matrix 2; Gene Name ACAD11
T3 construct: endogenous in cells
T3 sequence (Q709F0 1-780): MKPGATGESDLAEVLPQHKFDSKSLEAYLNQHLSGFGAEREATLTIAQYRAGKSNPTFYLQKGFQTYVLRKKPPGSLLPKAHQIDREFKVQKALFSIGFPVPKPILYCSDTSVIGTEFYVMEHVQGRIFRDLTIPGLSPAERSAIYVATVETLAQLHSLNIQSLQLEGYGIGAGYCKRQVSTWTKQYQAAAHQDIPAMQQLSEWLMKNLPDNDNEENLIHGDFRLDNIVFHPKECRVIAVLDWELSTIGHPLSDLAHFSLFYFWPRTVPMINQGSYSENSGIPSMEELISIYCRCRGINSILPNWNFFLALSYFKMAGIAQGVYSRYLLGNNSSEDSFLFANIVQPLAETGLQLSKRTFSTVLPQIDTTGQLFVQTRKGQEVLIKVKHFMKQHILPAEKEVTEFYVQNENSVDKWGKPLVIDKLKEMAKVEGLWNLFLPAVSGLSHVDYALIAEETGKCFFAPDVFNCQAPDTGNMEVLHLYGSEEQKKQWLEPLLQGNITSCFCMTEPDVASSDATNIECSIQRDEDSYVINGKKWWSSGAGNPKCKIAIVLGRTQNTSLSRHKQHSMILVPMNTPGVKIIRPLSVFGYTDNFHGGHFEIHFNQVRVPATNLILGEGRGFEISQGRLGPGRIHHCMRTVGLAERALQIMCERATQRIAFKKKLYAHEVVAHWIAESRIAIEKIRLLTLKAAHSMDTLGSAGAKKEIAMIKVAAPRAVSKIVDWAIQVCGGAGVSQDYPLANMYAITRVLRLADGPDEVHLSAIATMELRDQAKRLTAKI

CSK = biological target: T4, CSK (Homo sapiens, UniProt P41240); assay: Kinobeads competition binding: CSK; settings: target CSK
T4 construct: endogenous in cells

DAPK3 = biological target: T5, DAPK3 (Homo sapiens, UniProt O43293); assay: Kinobeads competition binding: DAPK3; settings: target DAPK3;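 also: share of all-target engagement taken by this protein at its own Kdapp concentration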
T5 construct: endogenous in cells

EIF2AK1 = assay: Kinobeads competition binding: EIF2AK1; set-up: species or system human; settings: target EIF2AK1;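 also: share of total target engagement due to this protein at one drug concentration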
INSR = assay: Kinobeads competition binding: INSR; set-up: species or system human; settings: target INSR;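 also: share of total target engagement due to this protein at one drug concentration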
JAK1 = assay: Kinobeads competition binding: JAK1; set-up: species or system human; settings: target JAK1;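 also: target engagement share of this target among all targets at its Kdapp concentration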

T2 sequence (Q9NSY1 whole entry): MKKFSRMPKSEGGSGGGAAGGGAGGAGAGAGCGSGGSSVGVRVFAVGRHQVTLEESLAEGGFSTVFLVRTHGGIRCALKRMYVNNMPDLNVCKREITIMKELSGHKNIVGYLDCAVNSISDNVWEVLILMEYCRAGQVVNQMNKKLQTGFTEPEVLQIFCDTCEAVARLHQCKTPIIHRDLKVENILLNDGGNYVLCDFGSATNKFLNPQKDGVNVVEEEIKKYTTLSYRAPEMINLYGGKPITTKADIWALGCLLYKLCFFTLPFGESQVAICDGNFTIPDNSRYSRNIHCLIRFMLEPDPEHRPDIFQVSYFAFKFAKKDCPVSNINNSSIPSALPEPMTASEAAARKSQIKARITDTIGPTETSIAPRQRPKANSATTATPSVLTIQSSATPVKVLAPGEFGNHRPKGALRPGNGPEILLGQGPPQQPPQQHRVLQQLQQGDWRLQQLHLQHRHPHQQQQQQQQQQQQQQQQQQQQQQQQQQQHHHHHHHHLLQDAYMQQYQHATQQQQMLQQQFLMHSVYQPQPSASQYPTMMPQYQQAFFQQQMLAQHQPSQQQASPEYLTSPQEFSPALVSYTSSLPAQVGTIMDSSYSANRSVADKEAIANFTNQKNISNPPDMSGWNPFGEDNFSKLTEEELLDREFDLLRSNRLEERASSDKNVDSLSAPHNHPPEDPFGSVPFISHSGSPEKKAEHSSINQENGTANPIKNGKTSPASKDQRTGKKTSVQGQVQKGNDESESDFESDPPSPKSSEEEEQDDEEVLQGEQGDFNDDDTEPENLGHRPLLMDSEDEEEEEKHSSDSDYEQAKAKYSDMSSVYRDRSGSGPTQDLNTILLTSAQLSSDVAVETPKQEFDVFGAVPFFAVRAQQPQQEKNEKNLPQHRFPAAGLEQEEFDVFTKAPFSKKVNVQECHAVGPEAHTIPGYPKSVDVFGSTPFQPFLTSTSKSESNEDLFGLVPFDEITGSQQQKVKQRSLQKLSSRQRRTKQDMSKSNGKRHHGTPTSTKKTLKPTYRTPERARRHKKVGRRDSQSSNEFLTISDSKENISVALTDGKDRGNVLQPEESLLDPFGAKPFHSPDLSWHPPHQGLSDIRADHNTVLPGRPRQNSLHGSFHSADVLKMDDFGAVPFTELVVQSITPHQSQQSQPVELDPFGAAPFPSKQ
T5 sequence (O43293 whole entry): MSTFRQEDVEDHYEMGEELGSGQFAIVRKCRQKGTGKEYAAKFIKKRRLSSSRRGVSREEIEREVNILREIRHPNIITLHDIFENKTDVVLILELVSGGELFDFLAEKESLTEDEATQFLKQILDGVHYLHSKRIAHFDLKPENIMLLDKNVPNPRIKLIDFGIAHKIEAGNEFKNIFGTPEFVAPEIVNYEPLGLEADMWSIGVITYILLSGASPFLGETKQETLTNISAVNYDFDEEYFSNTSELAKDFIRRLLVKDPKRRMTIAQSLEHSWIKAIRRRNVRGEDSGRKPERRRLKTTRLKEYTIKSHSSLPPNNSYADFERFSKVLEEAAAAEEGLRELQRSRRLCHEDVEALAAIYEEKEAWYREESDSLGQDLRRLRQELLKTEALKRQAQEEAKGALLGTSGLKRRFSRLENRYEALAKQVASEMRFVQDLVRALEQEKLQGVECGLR
T4 sequence (P41240 whole entry): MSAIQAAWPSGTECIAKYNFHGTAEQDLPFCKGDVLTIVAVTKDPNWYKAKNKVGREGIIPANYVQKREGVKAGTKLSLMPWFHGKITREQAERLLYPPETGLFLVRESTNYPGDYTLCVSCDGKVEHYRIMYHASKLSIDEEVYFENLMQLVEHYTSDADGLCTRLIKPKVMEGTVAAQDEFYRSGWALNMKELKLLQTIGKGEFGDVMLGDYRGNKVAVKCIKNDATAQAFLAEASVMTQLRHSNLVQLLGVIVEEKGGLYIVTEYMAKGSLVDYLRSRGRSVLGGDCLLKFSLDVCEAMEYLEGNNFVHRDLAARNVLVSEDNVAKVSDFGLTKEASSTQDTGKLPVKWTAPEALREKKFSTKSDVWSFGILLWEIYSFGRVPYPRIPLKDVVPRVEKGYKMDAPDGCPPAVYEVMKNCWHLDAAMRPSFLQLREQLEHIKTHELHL

`CCc1cc2c(cc1N1CCC(N3CCOCC3)CC1)C(C)(C)c1[nH]c3cc(C#N)ccc3c1C2=O` [Alectinib] showed a CATDS (CHECK1) of 0, a CATDS (BMP2K) of 0 and a CATDS (ACAD11) of 0. It also gave a CATDS (CSK) of 0, a CATDS (DAPK3) of 0 and a CATDS (EIF2AK1) of 0. It also gave a CATDS (INSR) of 0 and a CATDS (JAK1) of 0.
`CCN1CCN(Cc2ccc(Nc3ncc(F)c(-c4cc(F)c5nc(C)n(C(C)C)c5c4)n3)nc2)CC1` [Abemaciclib] was tested, and the CATDS (CHECK1) was 0, the CATDS (BMP2K) was 0 and the CATDS (ACAD11) was 0. It also gave a CATDS (CSK) of 0, a CATDS (DAPK3) of 0 and a CATDS (EIF2AK1) of 0. It also gave a CATDS (INSR) of 0 and a CATDS (JAK1) of 0.
For `Nc1ncnc2[nH]c(-c3ccccc3)nc12` [AH5015_KCGS], the CATDS (CHECK1) was 0, the CATDS (BMP2K) was 0 and the CATDS (ACAD11) was 0. The CATDS (CSK) was 0, the CATDS (DAPK3) was 0 and the CATDS (EIF2AK1) was 0. The CATDS (INSR) was 0 and the CATDS (JAK1) was 0.
With `N#CC1(c2ccc(NC(=O)c3cccnc3NCc3ccncc3)cc2)CCCC1` [Apatinib] the CATDS (CHECK1) was 0, the CATDS (BMP2K) was 0 and the CATDS (ACAD11) was 0. It also gave a CATDS (CSK) of 0, a CATDS (DAPK3) of 0 and a CATDS (EIF2AK1) of 0. It also gave a CATDS (INSR) of 0 and a CATDS (JAK1) of 0.
Work on `CC(C)N1CC(=O)N(C)c2cnc(Nc3cccc(S(=O)(=O)CCN4CCOCC4)c3)nc21` [BI00009348] yielded a potency estimated from few doses (BMP2K; Kinobeads two-dose, Drugmatrix - all 2, read-out: apparent Kd BMP2K) of 736 nM and a CATDS (ACAD11) of 0.
In the case of `C#Cc1cccc(Nc2ncnc3cc(OC)c(OC4CCN(C)CC4)cc23)c1` [BI00007366], the CATDS (ACAD11) is reported as 0.
With `C[C@]12O[C@H](C[C@]1(O)CO)n1c3ccccc3c3c4c(c5c6ccccc6n2c5c31)CNC4=O` [Lestaurtinib] the potency estimated from few doses (CHECK1; read-out: Lestaurtinib Drugmatrix value, Gene Name CHEK1) was 98 nM.
Molecule `CN(C)C/C=C/C(=O)Nc1cc2c(Nc3ccc(F)c(Cl)c3)ncnc2cc1O[C@H]1CCOC1` [Afatinib] has a CATDS (CHECK1) of 0, a CATDS (BMP2K) of 0 and a CATDS (ACAD11) of 0.
